Experimental data: patent publication US20160045487A1, “COMPOSITIONS AND METHODS FOR TREATING NEUROPATHY” (CHILDEREN'S MEDICAL CENTER CORPORATION, priority 2013, published 2016)

Legend:
[1] = tested on: diabetic mice (STZ model); assay: Nerve conduction velocity in sciatic nerves of STZ diabetic mice; format: in vivo, mouse; conditions: cream from hyperglycemia for 16 weeks
Description: To examine NCV, normo-glycemic or diabetic mice (STZ model, as described elsewhere herein) were treated with either vehicle cream or with cream containing XIB4035 from the moment they became hyperglycemic, for 16 weeks. At the end of this period, nerve conduction velocity (NCV) was measured in sciatic nerves.
(§1) Adult female C57 Bl/6J mice were made diabetic (blood glucose >15 mmol/L) by injection of STZ (90 mg/kg i.p.) on two consecutive days, with confirmation of hyperglycemia made 7 days after STZ delivery. Paw thermal response latency of the right paw was measured every two weeks from weeks 8-16 of diabetes using a modified Hargeaves test, as described

[2] = tested on: wild type mice; assay: Electron microscopy of sciatic nerve Remak bundles, wild type mice; format: in vivo, mouse; conditions: WT mice; XIB4035 cream 4 weeks
Description: (§2) As a first test, a cream containing XIB4035 (1.5 mM) was applied directly to the hind paws of GFAP-DN-erbB4 and wild type mice twice daily for a period of 4 weeks starting prior to symptom onset (P21). Mice of both genotypes were also treated with the base cream containing no drug for control. Mice were tested for responses to a noxious thermal stimulus prior to the initiation of treatment and every 7 days for the duration of the experiment.
(§3) The cream containing XIB4035 (1.5 mM, ZereneX Molecular Ltd., Manchester, UK) consisted of N-methyl-pyrrolidone (6.25%), isopropyl myristate (6.25%) and petroleum jelly (87.5%). Control cream had the same ingredients without XIB4035. Cream was applied twice daily to the hind paws of mice starting at P21 for a period of 4 weeks for prophylactic treatment of GFAP-DN-erbB4. Diabetic mice were treated twice daily for 8 weeks after streptozotocin (STZ) injection prior to onset of hyperglycemia and for another 8 weeks during neuropathy testing. Cream treatment in therapeutic studies using GFAP-DN-erbB4 mice was performed twice daily beginning after onset of SFN at P28 and either continued for 5 weeks (chronic treatment) or 1 week (acute treatment).
Tissue was prepared as in (Lacomis, supra). Briefly, mice were perfused intracardially with 2% paraformaldehyde, 2.5% gluteraldehyde and 0.03% picric acid in 0.1 M cacodylate buffer (pH 7.2). […]

[3] = target: T1, ErbB2/ErbB3 (Rattus norvegicus, UniProt P06494+Q62799); assay: NRG1-dependent activation of ErbB2/ErbB3 in L6 muscle cells; format: cell-based
T1 construct: endogenous in cells; host or cells: L6 muscle cells
T1 sequence (P06494 23-1257): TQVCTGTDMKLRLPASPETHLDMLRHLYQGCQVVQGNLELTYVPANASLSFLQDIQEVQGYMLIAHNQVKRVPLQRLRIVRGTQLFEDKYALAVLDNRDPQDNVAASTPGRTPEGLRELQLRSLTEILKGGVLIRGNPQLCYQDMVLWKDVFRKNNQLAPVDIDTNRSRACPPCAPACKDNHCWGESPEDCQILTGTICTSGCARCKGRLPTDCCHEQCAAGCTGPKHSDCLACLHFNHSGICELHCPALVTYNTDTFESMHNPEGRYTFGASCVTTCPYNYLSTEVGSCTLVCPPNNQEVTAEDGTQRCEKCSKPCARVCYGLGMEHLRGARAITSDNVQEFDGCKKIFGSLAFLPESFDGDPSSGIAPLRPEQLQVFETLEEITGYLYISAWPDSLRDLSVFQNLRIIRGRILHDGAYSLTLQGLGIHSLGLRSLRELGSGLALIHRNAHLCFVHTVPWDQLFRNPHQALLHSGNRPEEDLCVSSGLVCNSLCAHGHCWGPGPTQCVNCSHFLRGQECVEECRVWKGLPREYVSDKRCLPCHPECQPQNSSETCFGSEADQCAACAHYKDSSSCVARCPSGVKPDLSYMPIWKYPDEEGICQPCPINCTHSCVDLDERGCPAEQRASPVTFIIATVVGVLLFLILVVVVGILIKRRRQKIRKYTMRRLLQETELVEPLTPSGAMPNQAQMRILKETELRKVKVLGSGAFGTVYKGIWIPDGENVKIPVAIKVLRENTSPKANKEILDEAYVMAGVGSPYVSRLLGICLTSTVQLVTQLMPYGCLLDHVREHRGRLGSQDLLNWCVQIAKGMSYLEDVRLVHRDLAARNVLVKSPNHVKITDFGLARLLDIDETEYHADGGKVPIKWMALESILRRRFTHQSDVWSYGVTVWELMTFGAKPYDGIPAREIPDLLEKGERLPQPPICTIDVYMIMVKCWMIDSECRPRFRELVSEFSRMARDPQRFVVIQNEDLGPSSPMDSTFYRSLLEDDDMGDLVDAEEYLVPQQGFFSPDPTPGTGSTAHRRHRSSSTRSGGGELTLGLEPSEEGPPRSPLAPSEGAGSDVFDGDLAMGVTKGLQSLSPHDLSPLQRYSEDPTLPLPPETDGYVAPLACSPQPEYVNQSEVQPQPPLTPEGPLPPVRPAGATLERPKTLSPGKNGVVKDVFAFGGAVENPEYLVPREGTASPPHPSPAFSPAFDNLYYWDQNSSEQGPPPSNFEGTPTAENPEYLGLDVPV
T1 sequence (Q62799 20-1339): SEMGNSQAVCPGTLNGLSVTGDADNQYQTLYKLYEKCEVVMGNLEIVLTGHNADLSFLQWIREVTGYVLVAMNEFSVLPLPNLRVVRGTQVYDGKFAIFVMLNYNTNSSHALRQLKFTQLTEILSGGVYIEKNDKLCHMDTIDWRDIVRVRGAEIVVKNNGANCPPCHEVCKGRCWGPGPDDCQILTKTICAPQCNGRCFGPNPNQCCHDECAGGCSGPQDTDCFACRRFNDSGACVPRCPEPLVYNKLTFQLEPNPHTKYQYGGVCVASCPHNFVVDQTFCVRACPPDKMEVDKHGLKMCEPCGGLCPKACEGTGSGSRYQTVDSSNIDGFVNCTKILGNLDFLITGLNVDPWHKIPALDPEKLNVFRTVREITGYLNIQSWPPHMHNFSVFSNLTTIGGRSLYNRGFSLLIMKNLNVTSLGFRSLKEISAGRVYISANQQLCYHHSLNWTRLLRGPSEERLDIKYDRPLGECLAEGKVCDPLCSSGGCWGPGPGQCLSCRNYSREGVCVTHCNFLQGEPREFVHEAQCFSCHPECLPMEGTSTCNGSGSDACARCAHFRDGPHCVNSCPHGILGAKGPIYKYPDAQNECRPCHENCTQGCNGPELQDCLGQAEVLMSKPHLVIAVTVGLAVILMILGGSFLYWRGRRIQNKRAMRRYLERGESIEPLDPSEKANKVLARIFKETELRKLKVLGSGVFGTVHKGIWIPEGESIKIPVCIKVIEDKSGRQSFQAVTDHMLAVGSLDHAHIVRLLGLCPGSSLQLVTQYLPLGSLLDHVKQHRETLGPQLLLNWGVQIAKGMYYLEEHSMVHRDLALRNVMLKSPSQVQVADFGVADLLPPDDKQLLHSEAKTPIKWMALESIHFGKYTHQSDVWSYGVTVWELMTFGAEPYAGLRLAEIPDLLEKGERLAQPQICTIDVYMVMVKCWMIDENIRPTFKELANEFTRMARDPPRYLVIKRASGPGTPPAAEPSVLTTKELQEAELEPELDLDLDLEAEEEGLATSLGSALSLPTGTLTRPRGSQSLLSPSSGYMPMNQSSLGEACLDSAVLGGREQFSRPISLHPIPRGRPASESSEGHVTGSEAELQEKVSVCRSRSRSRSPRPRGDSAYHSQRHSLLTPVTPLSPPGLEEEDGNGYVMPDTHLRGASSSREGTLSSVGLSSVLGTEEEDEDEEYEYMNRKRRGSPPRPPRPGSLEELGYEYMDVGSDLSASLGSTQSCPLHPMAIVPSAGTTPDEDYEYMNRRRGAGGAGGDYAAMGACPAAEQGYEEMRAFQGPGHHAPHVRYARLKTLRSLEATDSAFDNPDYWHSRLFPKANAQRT

[4] = tested on: wild type mice; assay: Hot plate thermal nociception test in wild type mice; format: in vivo, mouse; conditions: cream 1.5 mM, 51° C. hotplate, P28-P42
Description: Thermal nociceptive responses in wild type mice treated with either control or XIB4035 (1.5 mM) containing cream were compared using the hotplate test (51° C.) beginning at four weeks of age (p28) and continued to six weeks of age (P42).
as §2
Transgenic mouse lines used were as previously described (Lacomis et al., Muscle Nerve 26, 173-188 (2002); Comblath et al., Current opinion in Neurology 19, 446-450 (2006)). Animals were kept in the animal facility with free access to food and water. Behavioral experiments were performed in a quiet environment at the same time of day. The hot plate test was performed using a “controlled hot-plate analgesia meter” (Columbus Instruments) heated to 54° C. Paw withdrawal latency was measured as the time required for the mouse to visibly respond to the thermal stimulus, e.g. licking paws, shaking paws, or jumping off of the plate. […]

[5] = tested on: GFAP-DN-erbB4 mice; assay: Electron microscopy of sciatic nerve Remak bundles, GFAP-DN-erbB4 mice; format: in vivo, mouse
Description: as §2, §3
Tissue was prepared as in (Lacomis, supra). Briefly, mice were perfused intracardially with 2% paraformaldehyde, 2.5% gluteraldehyde and 0.03% picric acid in 0.1 M cacodylate buffer (pH 7.2). Tissue was post-fixed overnight at 4° C. and embedded in Epon. Ultrathin sections were cut, collected on cellodin-coated grids and stained using uranyl acetate and lead citrate. Photographs were taken using the Tecnai G2 Spirit BioTWIN transmission electron microscope.

[6] = tested on: STZ-induced diabetic mice; assay: Hargreaves thermal nociception test in STZ-induced diabetic mice; format: in vivo, mouse; conditions: topical cream for 16 weeks from hyperglycemia; tests from week 8
Source text: To explore the utility of XIB4035 in a more clinically relevant model, diabetic peripheral neuropathy was selected because more than 50% of all diabetic patients develop some form of peripheral neuropathy, particularly SFN. Streptozotocin (STZ) induced diabetic model was chosen, in which a single injection of STZ kills pancreatic beta cells causing diabetes and produces SFN symptoms several weeks later. Upon becoming hyperglycemic, STZ injected mice were topically treated daily with either control or XIB4035 containing cream for 16 weeks. Thermal nociceptive tests began 8 weeks after initiation of treatment and were repeated every two weeks.
as §1
(§4) The cream containing XIB4035 (1.5 mM, ZereneX Molecular Ltd., Manchester, UK) consisted of N-methyl-pyrrolidone (6.25%), isopropyl myristate (6.25%) and petroleum jelly (87.5%). Control cream had the same ingredients without XIB4035. Cream was applied twice daily to the hind paws of mice starting at P21 for a period of 4 weeks for prophylactic treatment of GFAP-DN-erbB4. […]

[7] = tested on: GFAP-DN-erbB4 mice; assay: IB4 staining of C-fiber terminals in lamina II of spinal cord dorsal horn; format: in vivo, mouse; conditions: cream P28-P35; n=6
Description: (§5) However, in the clinic, therapy would almost certainly begin after patients present with symptoms of SFN. Therefore, it was determined whether topical XIB4035 can act as a disease-modifying agent in the GFAP-DN-erbB4 neuropathy model starting after animals are clearly symptomatic (P28). […] While IB4 labeling in mutant mice was lower than wild types regardless of treatment, IB4 signal was clearly present in mutant mice treated with XIB4035 while absent in those treated with control cream (FIG. 3D; 83% of XIB4035 treated mice (n=6) with IB4+ lamina II terminals vs 0% (n=4) in control treated mice) (FIG. 3D).
Spinal cords were collected from mice anesthetized with 2.5% Avertin, immersion fixed in 4% paraformaldehyde in 0.1 M phosphate buffer (pH 7.4) for 2 hours at 4° C., and cryoprotected in 20% sucrose overnight at 4° C. Tissue was embedded in OCT, sectioned at 15 μm, and stained mounted on slides. Tissue was blocked for 30 minutes in 0.1M PB+0.3% Triton-X 100+10% normal goat serum and incubated with TrpV1 rabbit polyclonal antibody (AbCAM, 1:2000) and Alexa-488 conjugated isolectin-B4 overnight at 4° C. Sections were washed 3 times for 30 minutes in 0.1M PB+0.3% Triton-X 100+10% normal goat serum followed by incubation with goat anti-rabbit Alexa-594 (Invitrogen) 1:1000 for 1 hour at room temperature.
Spinal cord images were acquired using a Zeiss Axioscope microscope. […]

[8] = tested on: GFAP-DN-erbB4 mice; assay: Hot plate (54° C.) thermal nociception test, GFAP-DN-erbB4 small fiber neuropathy model; format: in vivo, mouse
Description: as §2, §5
Transgenic mouse lines used were as previously described (Lacomis et al., Muscle Nerve 26, 173-188 (2002); Comblath et al., Current opinion in Neurology 19, 446-450 (2006)). Animals were kept in the animal facility with free access to food and water. Behavioral experiments were performed in a quiet environment at the same time of day. The hot plate test was performed using a “controlled hot-plate analgesia meter” (Columbus Instruments) heated to 54° C. Paw withdrawal latency was measured as the time required for the mouse to visibly respond to the thermal stimulus, e.g. licking paws, shaking paws, or jumping off of the plate.
as §4

[9] = GFAP-DN-erbB4 mice, XIB4035 cream 4 weeks

## CCN(CC)CCCC(C)Nc1cc(/C=C/c2ccccc2Cl)nc2cc(Cl)ccc12 (stereo not shown) [XIB4035, N4-{7-chloro-2-[(E)-2-(2-chloro-phenyl)-vinyl]-quinolin-4-yl}-N1,N1-diethyl-pentane-1,4-diamine]
[1]
  nerve conduction velocity (NCV) in sciatic nerves: not statistically different from that observed in control animals
[2]
  c-fiber area: 1.81 ± 0.06 µm²
  c-fibers/Remak bundle: 8.80 ± 0.52
[3]
  NRG1-dependent activation of ErbB2/ErbB3: did not influence
[4]
  thermal hyperalgesia: did not induce thermal hyperalgesia
[5]; [9]
  c-fiber area: 1.64 ± 0.07 µm²
  c-fibers/Remak bundle: 8.40 ± 0.83
[5]; cream 1.5 mM twice daily P21-P49, sciatic nerve EM
  degeneration of Remak bundles and C-fiber axons: prevented the degeneration of Remak bundles and C-fiber axons
[6]
  sensory function (thermal nociceptive tests): better sensory function than those exposed to the control cream
[7]
  treated mice with IB4+ lamina II terminals: 83%
[8]; prophylactic, cream 1.5 mM on hind paws twice daily, 4 weeks from P21, 54° C. hot plate
  reaction times to noxious thermal stimulus (thermal nociception): indistinguishable from wild type animals
[8]; therapeutic, treatment started after onset (P28), read one week later (P35), persisted with continued treatment
  neuropathic symptoms (thermal nociception): significant reduction in symptoms
[8]; treatment initiated at P28, interrupted at P35
  neuropathic symptoms after interruption of treatment: neuropathic symptoms reappeared one week later
